Several values for one entry are separate records, joined by “and”; a condition that tells them apart may be missing. Identical values can stand only once.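 These data come from cells grown in 96-well plates and exposed to compound for 48 hours at five concentrations. The concentration for 50% growth inhibition is given as GI50. TGI: total growth inhibition.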

What all share (experiment): NCI tumour cell line growth inhibition, 48 h
Assay [1] relates to BT-549 breast.
For assay [2], the system named is SK-MEL-2 melanoma.
Assay [3] relates to TK-10 renal.
The subject of assay [4] is LOX IMVI melanoma.
For assay [5], the system named is MALME-3M melanoma.
For assay [6], the system named is A549 NSCLC.
For assay [7], the system named is SNB-19 CNS.
The test system of assay [8] is HOP-92 NSCLC.
Assay [9] has as its system HL-60(TB) leukemia.
Assay [10] relates to SF-539 CNS.

Regarding `Clc1cccc(N2CCN(CCN3CCc4c([nH]c5ccccc45)C3c3cccnc3)CC2)c1` (configuration not stated), the TGI in [1] was greater than 100 µM; in assay [2], greater than 100 µM; in assay [3] it was greater than 100 µM; in assay [4] it was greater than 93.1 µM; in assay [5] it was greater than 100 µM; in [6], greater than 100 µM. In addition, the TGI is greater than 100 µM in assay [7], greater than 86.3 µM in assay [8], greater than 100 µM in [9] and 62.9 µM in assay [10].
For the molecule `CN1CCC(C(=O)Nc2n[nH]c3nc(-c4ccc(O)cc4)c(Br)cc23)CC1`, the GI50 in assay [1] is 1600 nM and 2310 nM; in [2], 0.692 µM and 1.66 µM; in assay [3], 3.16 µM and 6.15 µM; in assay [4], 574 nM and 661 nM; in [5], 3.56 µM and 4.97 µM; in [6] it was 5.72 µM and 7.38 µM. For the same molecule, the GI50 in [7] is 1.12 µM and 2.97 µM; in [8], 970 nM; in [9], 988 nM and 333 nM; in assay [10], 647 nM and 946 nM. Besides, the TGI in [1] was 16.4 µM and 16.9 µM; in assay [2], 2.32 µM and 5.75 µM; in assay [3] it was 15.3 µM and 17.1 µM; in [4], 5.45 µM and > 12.2 µM; in assay [5], 11.1 µM and 11.7 µM; in assay [6] it was greater than 25 µM. Moreover, the TGI was greater than 25 µM in assay [7]; 5.04 µM in assay [8]; 4 µM and 1.25 µM in [9]; 3.23 µM and 8.15 µM in [10].
With `OC(C1CO1)C(O)C1CO1` (configuration not stated), the GI50 in assay [1] was 29500 nM; in assay [2], 137 µM; in assay [3], 182 µM; in assay [4] it was 12000 nM; in assay [6] it was 16.5 µM and 8.67 µM; in assay [7], 107 µM. Moreover, the GI50 in [8] is 56100 nM; in assay [9], 2330 nM. Moreover, the TGI in assay [1] was 84.7 µM and 299 µM; in assay [2], 116 µM and 345 µM; in assay [3] it was 150 µM and 404 µM; in assay [4], 78.3 µM and 233 µM; in assay [5], 125 µM and 263 µM; in assay [6], 150 µM and 235 µM. Further, the TGI in assay [7] was 139 µM and 334 µM; in assay [8], 146 µM and 219 µM; in assay [9] it was 65.2 µM and 49.5 µM; in assay [10], 106 µM and 128 µM.
In the case of `COc1ccc(SC2c3ccc(C)cc3Oc3nc(N)c(C#N)c(N)c32)cc1` (configuration not stated), the GI50 in assay [1] is 1560 nM; in assay [2], 1.72 µM; in assay [3], 1.74 µM; in [4], 1600 nM; in assay [5], 1.68 µM; in [6] it was 2.19 µM. The GI50 is 1840 nM in [8], 1860 nM in assay [9] and 1640 nM in assay [10]. For the same molecule, the TGI was found to be 2.9 µM in [1]; 3.59 µM in assay [2]; 3.12 µM in assay [3]; 3.11 µM in [4]; 3.13 µM in assay [5]; 4.21 µM in assay [6]. Moreover, the TGI in assay [8] worked out at 3.55 µM; in [9] it was 3.99 µM; in assay [10] it was 3 µM.
In the case of `Cc1cccc(Cl)c1NC(=O)c1cnc(Nc2cc(N3CCOCC3)cc(N3CCOCC3)c2)s1`, the GI50 in assay [1] is greater than 4460 nM; in [2], greater than 5.25 µM; in assay [3], 0.00622 µM; in [4], 12 nM; in assay [5], greater than 4.82 µM; in [6] it was 0.158 µM. In addition, the GI50 in assay [7] was greater than 3.36 µM; in [8], 2.55 nM; in [9], 9980 nM; in assay [10] it was 36.6 nM. Further, the TGI was greater than 10 µM in [1]; greater than 10 µM in assay [2]; 0.0729 µM in assay [3]; 0.083 µM in assay [4]; greater than 10 µM in assay [5]; greater than 10 µM in assay [6]. Further, the TGI was greater than 10 µM in assay [7], 0.031 µM in assay [8], greater than 10 µM in [9] and greater than 6.8 µM in assay [10].
Turning to `COc1ccc2nc3cc([N+](=O)[O-])ccc3c(NCCCN(CCO)CCO)c2c1`, the GI50 was 5580 nM in assay [1]; 1.49 µM in assay [2]; 5.95 µM in [3]; 2420 nM in assay [4]; 2.21 µM in assay [5]; 10.9 µM in assay [6]. In addition, the GI50 is 5.68 µM in [7], 4310 nM in assay [8], 2560 nM in assay [9] and 7630 nM in assay [10]. The TGI is 12.8 µM in assay [1]; 3.2 µM in [2]; 22 µM in [3]; 6.32 µM in [4]; 5.3 µM in assay [5]; 24.6 µM in assay [6]. For the same molecule, the TGI in [7] was found to be 18.6 µM; in [8] it was 11.2 µM; in assay [9] it was 22.7 µM; in [10] it was 20.3 µM.
Take `NC(=S)N/N=C/c1ccc(O)cn1`: the TGI in assay [1] was greater than 670 µM; in assay [3] it was greater than 1390 µM; in [5], 113 µM and 138 µM; in assay [6] it was > 1500 µM and 584 µM; in [7] it was 1020 µM and > 1360 µM; in assay [8] it was greater than 1300 µM. In addition, the TGI was 44.7 µM and 21 µM and 21.7 µM in assay [9]; 23.6 µM and 10.9 µM and 17.2 µM in assay [10]. Also, the GI50 in assay [2] was 12.5 µM and 6.35 µM and 57.8 µM; in [4], 12400 nM; in assay [5], 31 µM and 13.4 µM; in assay [6], 33.2 µM and 41.1 µM; in assay [7], 29.2 µM and 8.2 µM; in assay [8], 6730 nM. The GI50 in assay [9] was 13700 nM; in [10], 4270 nM and 2770 nM.
Consider `O=C(NCCCCCCNC(=O)n1cc(F)c(=O)[nH]c1=O)NCCCOCCOCCOCCOCCOCCOCCOCCOCCOCCOCCOCCOCCOCCOCCOCCOCCOCCOCCOCCOCCOCCCNC(=O)C(O)C(O)C(OC1OC(CO)C(O)C(O)C1O)C(O)CO` (configuration not stated), for which the TGI in [1], in [2], in [3], in assay [4], in assay [5] and in assay [6] was greater than 100 µM each time. For the same molecule, the TGI in assay [7] was greater than 100 µM; in assay [8], greater than 100 µM; in [9] it was greater than 100 µM; in assay [10], 22.7 µM.
With `CCCCOC(=O)c1ccc(NC(=O)CCl)cc1`, the GI50 was 2200 nM in assay [1]; 4.89 µM in [2]; 1.91 µM in assay [3]; 1030 nM in [4]; 1.76 µM in assay [5]; 10.2 µM in assay [6]. Moreover, the GI50 in assay [7] is 1.62 µM; in [8], 1930 nM; in [9], 2280 nM; in [10] it was 1700 nM. Further, the TGI in assay [1] came to 7.7 µM; in [2], 15.9 µM; in [3], 3.85 µM; in [4], 2.35 µM; in assay [5], 3.68 µM; in assay [6], 22.8 µM. Further, the TGI in assay [7] is 3.22 µM; in assay [8], 3.65 µM; in assay [9], 4.86 µM; in assay [10], 3.18 µM.
